Source: article PMC11063955, “A multiplexed time-resolved fluorescence resonance energy transfer ultrahigh-throughput screening assay for targeting the SMAD4–SMAD3–DNA complex” (Journal of Molecular Cell Biology, 2023)
Like-named read-outs stand apart in the source and are kept apart here.

Assays:
[1] = tested on: TGFβ-induced SBE4-luc reporter activity in HEK293T cells; test: SBE luciferase reporter assay; assay type: cell-based, Human; conditions: 5 μM compound, TGFβ 10 ng/ml, 18 h
Protocol: SMAD3/SMAD4 complex transcriptional activity was measured using the SBE-luciferase reporter system. HEK293T cells were used to measure the luciferase activity. Cells were plated in 6-well plates and co-transfected with SBE4-Luc plasmid (1 μg, Addgene, 16495) and pDEST26-Renilla plasmid (0.1 μg) using FuGENE® HD (Promega, #E2312). After 24 h of transfection, the cells were pre-treated with GA (MedChemExpress, #HY-N0087) or GNA (MedChemExpress, #HY-5024) at 5 μM for 6 h followed by TGFβ (10 ng/ml, R&D Systems, #240-B) stimulation for an additional 18 h. Renilla and firefly luciferase activities were measured by an Envision Multilabel plate reader (PerkinElmer) using a Dual-Glo luciferase kit (Promega, Cat# E2920) according to the manufacturer's instructions. The normalized luminescence was calculated as the ratio of the luminescence of firefly luciferase over the luminescence of Renilla luciferase.

SMAD4–SMAD3 PPI = molecular target: T1, SMAD4–SMAD3 PPI (Homo sapiens, UniProt P84022+Q13485); test: Multiplexed TR-FRET assay, Tb–D2 PPI readout (cell lysate-based); assay type: binding; conditions: for inhibition of PPI signal compared to DMSO control, primary screen: 1536-well uHTS, 20 μM, single point
T1 construct: expressed in transfected cells; host or cells: HEK293T (transient co-transfection, lysate used)

[2] = molecular target: T2, full-length SMAD4–SMAD3 PPI (Homo sapiens, UniProt P84022+Q13485); test: GST pull-down assay, full-length SMAD4–SMAD3; assay type: binding
T2 construct: expressed in transfected cells; host or cells: HEK293T (lysate)
Protocol: (§1) To validate the hits from the pilot screening, we performed the orthogonal GST pull-down assay using cell lysates from HEK293T cells transfected with Venus-flag-SMAD3 and GST-SMAD4 or Venus-flag-SMAD3-MH2 and GST-SMAD4-MH2. After 48 h of transfection, the cells were lysed in 1% NP-40 lysis buffer, incubated with compounds for 16 h with rotation at 4°C, and then incubated with glutathione-conjugated beads (GE 17527901) for 2 h at 4°C. Beads were washed twice with 1% NP-40 lysis buffer, eluted by boiling in sodium dodecyl sulfate (SDS) sample buffer (Bio-Rad), and subjected to western blot analysis. Proteins in SDS sample buffer were resolved by 10% SDS polyacrylamide gel electrophoresis and transferred to nitrocellulose filter membranes at 100 V for 2 h at 4°C. After blocking in 5% nonfat dry milk in TBST (20 mM Tris-base, 150 mM NaCl, and 0.05% Tween 20) for 1 h at room temperature, the membranes were blotted with the indicated antibodies, mouse monoclonal anti-FLAG-HRP antibody (Sigma‒Aldrich, # A8592) and rabbit polyclonal anti-GST-HRP antibody (Sigma‒Aldrich, Cat# A7340), at 4°C overnight. The membranes were washed three times with 1× TBST for 15 min. […] Luminescence images were captured using the ChemiDoc^TM Touch Imaging System (Bio-Rad).

[3] = tested on: TGFβ-induced migration of A549 cells; test: Wound-healing assay; assay type: cell-based; conditions: 5 μM compound, TGFβ 10 ng/ml, A549 NucLight Red
Protocol: Briefly, A549 NucLight Red cells were seeded in 96-well plates (Greiner, Cat# 655087) at 40000 cells/well in RPMI 1640 media supplemented with 10% FBS and 1% antibiotics. After 24 h, a wound scratch was created in the confluent cell monolayer using a 96-well woundmaker (Sartorius), followed by washing three times with PBS. Then, the medium was replaced with RPMI 1640 medium without FBS. TGFβ (10 ng/ml), GA (5 μM), or GNA (5 μM) was added at the indicated concentrations. After 24 h of treatment, the plates were imaged using the ImageXpress Micro High-Content Imaging System (Molecular Device). The wound-healing activity was quantified by measuring the width (W) of the wound using ImageJ and expressed as […] × 100.

[4] = molecular target: T3, SMAD4–SMAD3 MH2 domain PPI (Homo sapiens, UniProt P84022+Q13485); test: GST pull-down assay, SMAD4–SMAD3 MH2 domains; assay type: binding
T3 construct: GST-SMAD4-MH2 and VF-SMAD3-MH2 (C and D); expressed in transfected cells; host or cells: HEK293T (lysate)
Protocol: as §1

[5] = molecular target: T4, SMAD–SBE4 PDI (SMAD4–SMAD3–DNA complex) (Homo sapiens, UniProt P84022+Q13485); test: Multiplexed TR-FRET assay, Tb–FAM PDI readout (cell lysate-based); assay type: binding; conditions: for inhibition of PDI signal compared to DMSO control, primary screen: 1536-well uHTS, 20 μM, single point
T4 construct: expressed in transfected cells; host or cells: HEK293T (transient co-transfection, lysate used)
T4 sequence (Q13485 whole entry): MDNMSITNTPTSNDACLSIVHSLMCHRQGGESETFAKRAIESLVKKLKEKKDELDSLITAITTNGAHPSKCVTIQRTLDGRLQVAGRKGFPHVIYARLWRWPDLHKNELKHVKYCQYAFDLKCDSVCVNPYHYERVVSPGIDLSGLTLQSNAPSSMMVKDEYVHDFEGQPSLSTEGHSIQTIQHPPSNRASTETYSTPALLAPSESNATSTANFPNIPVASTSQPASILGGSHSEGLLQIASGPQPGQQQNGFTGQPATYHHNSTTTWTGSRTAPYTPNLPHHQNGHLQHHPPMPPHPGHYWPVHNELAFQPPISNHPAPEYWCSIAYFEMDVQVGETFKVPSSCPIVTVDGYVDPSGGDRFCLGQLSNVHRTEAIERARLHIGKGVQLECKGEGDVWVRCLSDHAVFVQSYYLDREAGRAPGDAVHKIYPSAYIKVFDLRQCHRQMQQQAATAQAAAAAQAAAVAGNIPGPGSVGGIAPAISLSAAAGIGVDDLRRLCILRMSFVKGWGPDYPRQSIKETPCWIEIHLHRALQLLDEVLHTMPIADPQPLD
T4 sequence (P84022 whole entry): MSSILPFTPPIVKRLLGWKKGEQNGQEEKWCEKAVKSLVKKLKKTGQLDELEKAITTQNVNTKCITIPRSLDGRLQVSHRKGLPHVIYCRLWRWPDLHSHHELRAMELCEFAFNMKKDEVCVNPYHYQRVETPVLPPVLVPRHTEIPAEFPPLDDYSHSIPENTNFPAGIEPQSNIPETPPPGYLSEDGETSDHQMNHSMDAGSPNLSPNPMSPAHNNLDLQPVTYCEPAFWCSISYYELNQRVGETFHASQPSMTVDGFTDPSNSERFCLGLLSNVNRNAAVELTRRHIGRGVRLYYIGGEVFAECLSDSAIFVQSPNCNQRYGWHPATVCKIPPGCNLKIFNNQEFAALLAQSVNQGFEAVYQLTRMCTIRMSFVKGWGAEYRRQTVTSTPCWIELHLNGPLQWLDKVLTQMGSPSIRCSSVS

T1 sequence (Q13485 whole entry): as the sequence (Q13485 whole entry) above
T1 sequence (P84022 whole entry): as the sequence (P84022 whole entry) above
T2 sequence (Q13485 whole entry): as the sequence (Q13485 whole entry) above
T2 sequence (P84022 whole entry): as the sequence (P84022 whole entry) above
T3 sequence (Q13485 323-552): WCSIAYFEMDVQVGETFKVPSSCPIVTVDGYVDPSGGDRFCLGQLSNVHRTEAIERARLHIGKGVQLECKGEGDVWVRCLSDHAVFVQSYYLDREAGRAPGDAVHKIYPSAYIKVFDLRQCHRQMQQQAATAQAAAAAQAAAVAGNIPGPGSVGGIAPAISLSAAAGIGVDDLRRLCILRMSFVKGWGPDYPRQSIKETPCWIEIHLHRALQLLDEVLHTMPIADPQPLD
T3 sequence (P84022 232-425): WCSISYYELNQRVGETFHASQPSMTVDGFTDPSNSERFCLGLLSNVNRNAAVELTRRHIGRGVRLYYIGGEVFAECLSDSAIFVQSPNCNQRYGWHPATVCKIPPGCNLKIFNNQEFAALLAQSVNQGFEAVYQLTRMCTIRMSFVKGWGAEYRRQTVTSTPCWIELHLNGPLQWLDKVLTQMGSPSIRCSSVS

SMILES: CC(C)=CCC[C@]1(C)C=Cc2c(O)c3c(c(CC=C(C)C)c2O1)O[C@]12C(=C[C@@H]4C[C@H]1C(C)(C)O[C@@]2(C/C=C(/C)C(=O)O)C4=O)C3=O [GA, gambogic acid]
- TGFβ-induced SBE4-luc activity [1]: significant reduction
- inhibition of PPI signal compared to DMSO control, primary screen (SMAD4–SMAD3 PPI): robust inhibitory effects
- IC50 (SMAD4–SMAD3 PPI; TR-FRET dose–response confirmation with re-ordered compounds, lysate co-expressing His-SMAD4 and Flag-SMAD3, read-out: IC50, decrease in the PPI signal): 4.3 ± 0.5 µM
- IC50 ([2]; GST-SMAD4 and VF-SMAD3 lysates, densitometry of western blots, read-out: IC50, decrease of SMAD3 protein in the pull-down GST-SMAD4 complex): ~11.4 µM
- TGFβ-induced A549 cell migration (wound healing) [3]: significantly reduced
- IC50 ([4]; GST-SMAD4-MH2 and VF-SMAD3-MH2 lysates, densitometry of western blots, read-out: IC50, inhibition of the PPI of SMAD4–SMAD3 MH2 domains): ~11.4 µM
- inhibition of PDI signal compared to DMSO control, primary screen [5]: robust inhibitory effects
- IC50 ([5]; TR-FRET dose–response confirmation with re-ordered compounds, 5′-FAM-SBE4 dsDNA, read-out: IC50, decrease in the PDI signal): 36 ± 9.4 µM

SMILES: CC(C)=CCC/C(C)=C/Cc1c(O)c(CC=C(C)C)c2c(c1O)C(=O)C1=C[C@@H]3C[C@H]4C(C)(C)O[C@@](C/C=C(/C)C(=O)O)(C3=O)[C@@]14O2 [GNA, gambogenic acid]
- TGFβ-induced SBE4-luc activity [1]: significant reduction
- IC50 (SMAD4–SMAD3 PPI): 6.4 ± 1.6 µM
- inhibition of PPI signal compared to DMSO control, primary screen (SMAD4–SMAD3 PPI): robust inhibitory effects
- IC50 [2]: ~8.9 µM
- TGFβ-induced A549 cell migration (wound healing) [3]: significantly reduced
- IC50 [4]: ~9 µM
- IC50 [5]: 27.6 ± 4.8 µM
- inhibition of PDI signal compared to DMSO control, primary screen [5]: robust inhibitory effects
